Assay results: patent US20210230170A1, “KRAS G12C INHIBITORS” (Mirati Therapeutics, Inc., priority 2018, published 2021)

target: T1, KRas G12C (Homo sapiens, UniProt P01116, G12C); test: Inhibition of KRas G12C in NCI-H358 cells measured by phosphorylated ERK (Phospho-ERK); format: cell-based; conditions: pERK(Thr202/Tyr204) signal normalized with GAPDH, percent of DMSO control, 3 hours compound treatment
T1 construct: NCI-H358 cells (ATCC CRL-5807) express KRas G12C; host or cells: NCI-H358
Protocol: The cellular inhibition of KRAs G12C by exemplary compounds of the present invention was determined by measuring the amount of a downstream marker of KRas activity, phosphorylated ERK (“Phospho-ERK”).
NCI-H358 cells (ATCC CRL-5807) express KRas G12C and were grown in RPMI medium supplemented with 10% fetal bovine serum, penicillin/streptomycin and 10 mM HEPES. Cells were plated in poly-D-Lysine coated 96-well plates at a concentration of 50,000 cells/well and allowed to attach for 8-12 hours. Diluted compounds were then added at a final concentration of 0.5% DMSO. After 3 hours, the medium was removed, 150 μL of 4% formaldehyde was added and the plates were incubated for 20 minutes. The plates were washed with PBS, and permeabilized using 150 μL of ice cold 100% methanol for 10 minutes. Non-specific antibody binding to the plates was blocked using 100 μL Licor Blocking Buffer (Li-Cor Biotechnology, Lincoln Nebr.) for 1 hour at room temperature. Positive control samples and samples lacking cells were parallel processed with test samples as standards.
The amount Phospho-ERK was determined using an antibody specific for the phosphorylated form of ERK and compared to the amount of GAPDH. Primary antibodies used for detection were added as follows: Phospho-ERK (Cell Signaling cs9101) diluted 1:500 and GAPDH (Millipore MAB374) diluted 1:5000 in Licor block+0.05% Tween 20. The plates were incubated for 2 hours at room temperature. The plates were washed with PBS+0.05% Tween 20.
Secondary antibodies used to visualize primary antibodies were added as follows: Anti-rabbit-680 diluted 1:1000 and Anti-mouse-800 diluted 1:1000 in Licor Block+0.05% Tween 20 and incubated for 1 hour at room temperature. The plates were washed with PBS+0.05% Tween 20. A 100 μL aliquot of PBS was added to each well and the plates were read on a LICOR AERIUS plate reader.
The pERK(Thr202/Tyr204) signal was normalized with the GAPDH signal and percent of DMSO control values were calculated. IC50 values were generated using a 4 parameter fit of the dose response curve. Key: “A”≤500 nM; “B”>500 nM and ND=not determined.

T1 sequence (P01116 1-188 isoform P01116-2 G12C): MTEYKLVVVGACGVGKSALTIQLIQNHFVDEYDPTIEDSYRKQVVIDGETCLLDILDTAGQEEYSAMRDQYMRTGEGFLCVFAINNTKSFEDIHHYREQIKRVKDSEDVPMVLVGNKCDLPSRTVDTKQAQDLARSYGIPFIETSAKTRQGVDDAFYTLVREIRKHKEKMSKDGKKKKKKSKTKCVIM

SMILES | IC50 [nM]
C=CC(=O)N1CCN(c2nc(OC[C@@H]3CCCN3C)nc3c2CCCN(c2cccc4cccc(C)c24)C3)C[C@@H]1CC#N [Example 1, 2-[(2S)-4-[8-(8-methyl-1-naphthyl)-2-[[(2S)-1-Methylpyrrolidin-2-yl]methoxy]-5,6,7,9-tetrahydropyrimido[4,5-c]azepin-4-yl]-1-prop-2-enoyl-piperazin-2-yl]acetonitrile] | ≤ 500
C=C(F)C(=O)N1CCN(c2nc(OC[C@@H]3CCCN3C)nc3c2CCCN(c2cccc4cccc(C)c24)C3)C[C@@H]1CC#N [Example 2, 2-[(2S)-1-(2-fluoroprop-2-enoyl)-4-[8-(8-methyl-1-naphthyl)-2-[[(2S)-1-methylpyrrolidin-2-yl]methoxy]-5,6,7,9-tetrahydropyrimido[4,5-c]azepin-4-yl]piperazin-2-yl]acetonitrile] | > 500
C=CC(=O)N1CCN(c2nc(OC[C@@H]3CCCN3C)nc3c2CCCN(c2c(C)ccc4ccccc24)C3)C[C@@H]1CC#N [Example 3, 2-[(2S)-4-[8-(2-methyl-1-naphthyl)-2-[[(2S)-1-methylpyrrolidin-2-yl]methoxy]-5,6,7,9-tetrahydropyrimido[4,5-c]azepin-4-yl]-1-prop-2-enoyl-piperazin-2-yl]acetonitrile] | ≤ 500
C=CC(=O)N1CCN(c2nc(OC[C@@H]3CCCN3C)nc3c2CCCN(c2ccccc2C)C3)C[C@@H]1CC#N [Example 4, 2-[(2S)-4-[2-[[(2S)-1-methylpyrrolidin-2-yl]methoxy]-8-(o-tolyl)-5,6,7,9-tetrahydropyrimido[4,5-c]azepin-4-yl]-1-prop-2-enoyl-piperazin-2-yl]acetonitrile] | > 500
C=CC(=O)N1CCN(c2nc(OC[C@@H]3CCCN3C)nc3c2CCCN(c2ccccc2)C3)C[C@@H]1CC#N [Example 5, 2-[(2S)-4[2-[[(2S)-1-methylpyrrolidin-2-yl]methoxy]-8-phenyl-5,6,7,9-tetrahydropyrimido[4,5-c]azepin-4-yl]-1-prop-2-enoyl-piperazin-2-yl]acetonitrile] | > 500
C=CC(=O)N1CCN(c2nc(OC[C@@H]3CCCN3C)nc3c2CCCN(c2cccc4ccccc24)C3)C[C@@H]1CC#N [Example 6, 2-[(2S)-4-[2-[[(2S)-1-methylpyrrolidin-2-yl]methoxy]-8-(1-naphthyl)-5,6,7,9-tetrahydropyrimido[4,5-c]azepin-4-yl]-1-prop-2-enoyl-piperazin-2-yl]acetonitrile] | > 500
C=CC(=O)N1CCN(c2nc(OC[C@@H]3CCCN3C)nc3c2CCCN(c2cccc4cccc(Cl)c24)C3)C[C@@H]1CC#N [Example 7, 2-((S)-1-acryloyl-4-(8-(8-chloronaphthalen-1-yl)-2-(((S)-1-methylpyrrolidin-2-yl)methoxy)-6,7,8,9-tetrahydro-5H-pyrimido[4,5-c]azepin-4-yl)piperazin-2-yl)acetonitrile] | > 500
C=CC(=O)N1CCN(c2nc(OC[C@@H]3CCCN3C)nc3c2CCCN(c2cccc(C(C)C)c2)C3)C[C@@H]1CC#N [Example 8, 2-[(2S)-4-[8-(3-isopropylphenyl)-2-[[(2S)-1-methylpyrrolidin-2-yl]methoxy]-5,6,7,9-tetrahydropyrimido[4,5-c]azepin-4-yl]-1-prop-2-enoyl-piperazin-2-yl]acetonitrile] | > 500
C=CC(=O)N1CCN(c2nc(OC[C@@H]3CCCN3C)nc3c2CCCN(c2cccc(F)c2C)C3)C[C@@H]1CC#N [Example 9, 2-((S)-1-acryloyl-4-(8-(3-fluoro-2-methylphenyl)-2-(((S)-1-methylpyrrolidin-2-yl)methoxy)-6,7,8,9-tetrahydro-5H-pyrimido[4,5-c]azepin-4-yl)piperazin-2-yl)acetonitrile] | ≤ 500
C=CC(=O)N1CCN(c2nc(OC[C@@H]3CCCN3C)nc3c2CCCN(c2c(F)ccc4ccccc24)C3)C[C@@H]1CC#N [Example 10, 2-((S)-1-acryloyl-4-(8-(2-fluoronaphthalen-1-yl)-2-(((S)-1-methylpyrrolidin-2-yl)methoxy)-6,7,8,9-tetrahydro-5H-pyrimido[4,5-c]azepin-4-yl)piperazin-2-yl)acetonitrile] | ≤ 500
C=CC(=O)N1CCN(c2nc(OC[C@@H]3CCCN3C)nc3c2CCCN(c2cccc4c(C)cccc24)C3)C[C@@H]1CC#N [Example 11, 2-((S)-1-acryloyl-4-(8-(5-methylnaphthalen-1-yl)-2-(((S)-1-methylpyrrolidin-2-yl)methoxy)-6,7,8,9-tetrahydro-5H-pyrimido[4,5-c]azepin-4-yl)piperazin-2-yl)acetonitrile] | > 500
C=CC(=O)N1CCN(c2nc(OC[C@@H]3CCCN3C)nc3c2CCCN(c2cccc4c(F)cccc24)C3)C[C@@H]1CC#N [Example 12, 2-((S)-1-acryloyl-4-(8-(5-fluoronaphthalen-1-yl)-2-(((S)-1-methylpyrrolidin-2-yl)methoxy)-6,7,8,9-tetrahydro-5H-pyrimido[4,5-c]azepin-4-yl)piperazin-2-yl)acetonitrile] | ≤ 500
C=CC(=O)N1CCN(c2nc(OC[C@@H]3CCCN3C)nc3c2CCCN(c2cccc(F)c2C(F)(F)F)C3)C[C@@H]1CC#N [Example 14, 2-[(2S)-4-[8-[3-fluoro-2-(trifluoromethyl)phenyl]-2-[[(2S)-1-methylpyrrolidin-2-yl]methoxy]-5,6,7,9-tetrahydropyrimido[4,5-c]azepin-4-yl]-1-prop-2-enoyl-piperazin-2-yl]acetonitrile] | ≤ 500
C=CC(=O)N1CCN(c2nc(OC[C@@H]3CCCN3C)nc3c2CCCN(c2ncccc2C(F)(F)F)C3)C[C@@H]1CC#N [Example 15, 2-[(2S)-4-[2-[[(2S)-1-methylpyrrolidin-2-yl]methoxy]-8-[3-(trifluoromethyl)-2-pyridyl]-5,6,7,9-tetrahydropyrimido[4,5-c]azepin-4-yl]-1-prop-2-enoyl-piperazin-2-yl]acetonitrile] | > 500
C=CC(=O)N1CCN(c2nc(OC[C@@H]3CCCN3C)nc3c2CCCN(c2ccccc2CO)C3)C[C@@H]1CC#N [Example 16, 2-[(2S)-4-[8-[2-(hydroxymethyl)phenyl]-2-[[(2S)-1-methylpyrrolidin-2-yl]methoxy]-5,6,7,9-tetrahydropyrimido[4,5-c]azepin-4-yl]-1-prop-2-enoyl-piperazin-2-yl]acetonitrile] | > 500
C=CC(=O)N1CCN(c2nc(OC[C@@H]3CCCN3C)nc3c2CCCN(c2nccc4cccc(C)c24)C3)C[C@@H]1CC#N [Example 17, 2-[(2S)-4-[8-(8-methyl-1-isoquinolyl)-2-[[(2S)-1-methylpyrrolidin-2-yl]methoxy]-5,6,7,9-tetrahydropyrimido[4,5-c]azepin-4-yl]-1-prop-2-enoyl-piperazin-2-yl]acetonitrile] | ≤ 500
C=CC(=O)N1CCN(c2nc(OC[C@@H]3CCCN3C)nc3c2CCCN(c2c(C)cccc2F)C3)C[C@@H]1CC#N [Example 18, 2-[(2S)-4-[8-(2-fluoro-6-methyl-phenyl)-2-[[(2S)-1-methylpyrrolidin-2-yl]methoxy]-5,6,7,9-tetrahydropyrimido[4,5-c]azepin-4-yl]-1-prop-2-enoyl-piperazin-2-yl]acetonitrile] | ≤ 500
C=CC(=O)N1CCN(c2nc(OC[C@@H]3CCCN3C)nc3c2CCCN(c2c(C)ccc4[nH]ncc24)C3)C[C@@H]1CC#N [Example 19, 2-[(2S)-4-[8-(5-methyl-1H-indazol-4-yl)-2-[[(2S)-1-methylpyrrolidin-2-yl]methoxy]-5,6,7,9-tetrahydropyrimido[4,5-c]azepin-4-yl]-1-prop-2-enoyl-piperazin-2-yl]acetonitrile] | > 500
C=C(F)C(=O)N1CCN(c2nc(OC[C@@H]3CCCN3C)nc3c2CCCN(c2c(C)ccc4[nH]ncc24)C3)C[C@@H]1CC#N [Example 20, 2-[(2S)-1-(2-fluoroprop-2-enoyl)-4-[8-(5-methyl-1H-indazol-4-yl)-2-[[(2S)-1-methylpyrrolidin-2-yl]methoxy]-5,6,7,9-tetrahydropyrimido[4,5-c]azepin-4-yl]piperazin-2-yl]acetonitrile] | > 500
C=CC(=O)N1CCN(c2nc(OC[C@@H]3CCCN3C)nc3c2CCCN(c2cccc4cccc(C(F)(F)F)c24)C3)C[C@@H]1CC#N [Example 21, 2-((S)-1-acryloyl-4-(2-(((S)-1-methylpyrrolidin-2-yl)methoxy)-8-(8-(trifluoromethyl)naphthalen-1-yl)-6,7,8,9-tetrahydro-5H-pyrimido[4,5-c]azepin-4-yl)piperazin-2-yl)acetonitrile] | > 500
C=C(F)C(=O)N1CCN(c2nc(OC[C@@H]3CCCN3C)nc3c2CCCN(c2cccc4ccccc24)C3)C[C@@H]1CC#N [Example 22, 2-((S)-1-(2-fluoroacryloyl)-4-(2-(((S)-1-methylpyrrolidin-2-yl)methoxy)-8-(naphthalen-1-yl)-6,7,8,9-tetrahydro-5H-pyrimido[4,5-c]azepin-4-yl)piperazin-2-yl)acetonitrile] | > 500
